Assay results published in ChEMBL document CHEMBL1201862, “PubChem BioAssay data set” (2004).
Calls of active or inactive are those of the source.

Assays:
[1] = molecular target: T1, RNA-binding protein pos-1 (Caenorhabditis elegans, UniProt G5EF15); assay: inhibitors of POS-1/mex-3 RNA binding, dose response, biochemical, fluorescence polarization (AID 1964);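 further: purified POS-1 fused to maltose binding protein made in E. coli; potency of compounds blocking POS-1 binding to fluorescent RNA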
T1 sequence (G5EF15 whole entry): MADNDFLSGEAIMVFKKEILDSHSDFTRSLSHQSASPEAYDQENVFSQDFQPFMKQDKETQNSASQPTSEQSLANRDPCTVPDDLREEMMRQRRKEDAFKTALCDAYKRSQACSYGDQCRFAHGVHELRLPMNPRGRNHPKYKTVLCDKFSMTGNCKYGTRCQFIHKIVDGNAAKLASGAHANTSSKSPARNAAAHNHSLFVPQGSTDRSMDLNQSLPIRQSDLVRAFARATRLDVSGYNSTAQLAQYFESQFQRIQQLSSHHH

[2] = molecular target: T2, Zinc finger protein mex-5 (Caenorhabditis elegans, UniProt Q9XUB2); assay: MEX-5/TCR-2 RNA interaction inhibitors, dose response, biochemical, C. elegans, fluorescence polarization (AID 1960)
T2 sequence (Q9XUB2 whole entry): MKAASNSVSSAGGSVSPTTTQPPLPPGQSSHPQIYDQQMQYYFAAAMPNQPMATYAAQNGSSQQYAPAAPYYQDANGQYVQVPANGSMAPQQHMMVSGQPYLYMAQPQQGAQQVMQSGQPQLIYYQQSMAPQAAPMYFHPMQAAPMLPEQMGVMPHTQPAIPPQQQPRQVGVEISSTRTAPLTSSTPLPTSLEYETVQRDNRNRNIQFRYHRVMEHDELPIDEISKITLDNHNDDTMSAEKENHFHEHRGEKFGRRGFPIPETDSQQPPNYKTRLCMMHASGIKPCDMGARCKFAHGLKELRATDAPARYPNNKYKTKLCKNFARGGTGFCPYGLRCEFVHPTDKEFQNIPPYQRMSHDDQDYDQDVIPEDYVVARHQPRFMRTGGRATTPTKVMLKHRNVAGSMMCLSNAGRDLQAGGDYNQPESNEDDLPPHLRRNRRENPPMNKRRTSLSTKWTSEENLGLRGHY

[3] = tested on: Saccharomyces cerevisiae; assay: NALP1 inhibitor project selectivity study, Caspase-1/ASC signal blockade IC50 in S. cerevisiae (AID 488863); type: functional, organism-based
[4] = molecular target: ORF 73 (Human herpesvirus 8, UniProt O40947); assay: inhibitors of C-LANA binding to LBS DNA, dose response, biochemical, fluorescence polarization, cherry-picked samples (AID 504725); parameters: species or system Human gammaherpesvirus 8;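 further: fluorescence polarization of a labeled DNA duplex reporting LANA DNA binding; potency is for inhibitors that block LANA binding to the DNA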
[5] = molecular target: Troponin, cardiac muscle (Homo sapiens, UniProt P19429+P45379+P63316); assay: Fluorescence-based biochemical high throughput dose response assay for activators of the calcium sensitivity of cardiac Regulated Thin Filaments (RTF). [Related pubchem assays (depositor defined):AID493008, AID493018, AID504382, AID504383]; type: protein-complex assay
[6] = molecular target: T3, Replicative DNA helicase DnaB (Mycobacterium tuberculosis, UniProt P9WMR3); assay: DnaB intein splicing inhibitors, dose response, biochemical, cell-free fluorescence (AID 449749); type: functional
T3 sequence (P9WMR3 whole entry): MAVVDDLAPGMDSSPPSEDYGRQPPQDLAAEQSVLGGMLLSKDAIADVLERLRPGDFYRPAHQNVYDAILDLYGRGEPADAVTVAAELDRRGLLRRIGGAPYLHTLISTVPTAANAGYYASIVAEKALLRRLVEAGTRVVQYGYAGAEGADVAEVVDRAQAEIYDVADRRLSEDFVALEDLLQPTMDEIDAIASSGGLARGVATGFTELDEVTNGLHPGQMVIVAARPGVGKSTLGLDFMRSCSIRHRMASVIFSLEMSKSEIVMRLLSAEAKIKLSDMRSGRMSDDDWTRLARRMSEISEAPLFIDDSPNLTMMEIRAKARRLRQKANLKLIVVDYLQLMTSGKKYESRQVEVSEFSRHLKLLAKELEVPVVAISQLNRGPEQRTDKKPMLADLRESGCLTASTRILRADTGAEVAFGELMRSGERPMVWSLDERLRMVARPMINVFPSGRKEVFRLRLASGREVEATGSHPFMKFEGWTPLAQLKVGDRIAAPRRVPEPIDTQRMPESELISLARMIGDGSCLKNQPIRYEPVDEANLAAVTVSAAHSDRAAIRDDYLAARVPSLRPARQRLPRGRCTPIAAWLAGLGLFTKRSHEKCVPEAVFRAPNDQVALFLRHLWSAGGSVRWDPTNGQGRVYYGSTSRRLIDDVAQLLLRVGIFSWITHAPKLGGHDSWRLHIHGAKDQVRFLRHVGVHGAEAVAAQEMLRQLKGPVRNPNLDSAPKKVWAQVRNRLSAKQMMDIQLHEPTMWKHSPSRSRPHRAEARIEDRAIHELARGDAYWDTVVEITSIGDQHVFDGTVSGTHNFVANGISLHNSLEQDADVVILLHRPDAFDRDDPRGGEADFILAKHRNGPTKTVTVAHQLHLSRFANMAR

[7] = molecular target: T4, Sentrin-specific protease 8 (Homo sapiens, UniProt Q96LD8); type: functional
T4 sequence (Q96LD8 whole entry): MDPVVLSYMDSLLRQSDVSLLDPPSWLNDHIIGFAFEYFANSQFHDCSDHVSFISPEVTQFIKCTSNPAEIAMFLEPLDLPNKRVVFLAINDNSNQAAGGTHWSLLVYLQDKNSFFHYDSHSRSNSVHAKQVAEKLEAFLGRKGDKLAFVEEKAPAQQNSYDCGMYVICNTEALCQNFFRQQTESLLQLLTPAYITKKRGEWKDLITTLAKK

[8] = molecular target: Aurora kinase B (Homo sapiens, UniProt Q96GD4); type: functional
[9] = molecular target: Mitogen-activated protein kinase 14 (Homo sapiens, UniProt Q16539); type: functional;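 further: part of a kinome-wide panel, MAPK14 entry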
[10] = molecular target: Serine/threonine-protein kinase 17A (Homo sapiens, UniProt Q9UEE5); type: functional
[11] = molecular target: Calcium/calmodulin-dependent protein kinase type II subunit delta (Homo sapiens, UniProt Q13557); type: functional
[12] = molecular target: Serine/threonine-protein kinase N2 (Homo sapiens, UniProt Q16513); type: functional
[13] = molecular target: Misshapen-like kinase 1 (Homo sapiens, UniProt Q8N4C8); type: functional;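 further: kinome panel screen with MINK as the panel member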
[14] = molecular target: Mitogen-activated protein kinase kinase kinase kinase 5 (Homo sapiens, UniProt Q9Y4K4); type: functional;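 further: measured as one member of a kinome-spanning kinase panel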
[15] = molecular target: Cytochrome P450 2C19 (Homo sapiens, UniProt P33261); assay: Cytochrome panel assay with activity outcomes. Panel member name: p450-cyp2c19 Compounds with AC50 equal or less than 10 uM are considered active; type: functional; conditions: read-out: AC50
[16] = molecular target: MAP/microtubule affinity-regulating kinase 4 (Homo sapiens, UniProt Q96L34); assay: Navigating the Kinome. Panel member name: MARK4; type: functional
[17] = molecular target: Mast/stem cell growth factor receptor Kit (Homo sapiens, UniProt P10721); type: functional;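 further: KIT entry within a kinase panel assay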
[18] = molecular target: MAP/microtubule affinity-regulating kinase 3 (Homo sapiens, UniProt P27448); type: functional;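 further: MARK3 affinity measured as one member of a kinome panel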

c1ccc2nc3cc4[nH]cnc4cc3nc2c1
EC50 [1]: 7.59 µM (inconclusive) | EC50 [2]: 1.74 µM (inconclusive) | IC50 [3]: 32.7 µM (active) | AC50 [4]: 7.45 µM (active) | EC50 [5]: 5.37 µM (active) | AC50 [6]: 19.5 µM (active) | IC50 [7]: 12.5 µM (active)

COc1cccc(C(C)NC(=O)c2sc(-c3ccncc3)nc2C)c1 (stereo not given)
Ki [8]: > 3.98 µM (inactive) | Ki [9]: > 3.98 µM (inactive)

CCCCC(=O)Nc1cc(-c2c[nH]c3ncccc23)cc(Cl)n1
Ki [10]: > 3.16 µM (inactive) | Ki [11]: > 3.16 µM (inactive) | Ki [12]: > 5.01 µM (inactive) | Ki [13]: > 2.51 µM (inactive) | Ki [14]: > 3.98 µM (inactive) | Ki [9]: > 3.98 µM (inactive)

Oc1ccc(-c2nc(-c3ccncc3)c(-c3ccc(F)cc3)[nH]2)cc1 [SB-202190]
AC50 [15]: 10 µM (inconclusive) | Ki [16]: > 5.01 µM (inactive) | Ki [17]: > 6.31 µM (inactive) | Ki [18]: > 5.01 µM (inactive) | Ki [8]: > 3.98 µM (inactive)
